What was measured:
nematodes = conditions: cited from earlier work
[1] = test system: mammalian ligand-gated chloride channels; conditions: cited from earlier work
[2] = test system: Strongyloides stercoralis; conditions: cited from earlier work
head lice [3] = conditions: single oral dose 100-200 ug/kg; cited from earlier work
[4] = test system: adult worm of any species of Filarioidea; conditions: causing lymphatic filariasis, tropical pulmonary eosinophilia syndrome, lymphadenitis or lymphangitis; cited from earlier work
Pediculosis capitis = conditions: 200 ug/kg single oral dose, 26 patients; cited from earlier work
[5] = test system: glutamate-gated chloride ion channels; conditions: invertebrate nerve and muscle cells; cited from earlier work
Onchocerca volvulus [6] = conditions: cited from earlier work
head lice [7] = test: Example 8: comparison of head lice treatment using orally administered ivermectin at cumulative doses of 800, 1200 and 600 ug/kg and shampoo cleaning; type: in vivo, human; conditions: for Treatment success (%) Day 15: washing shampoo the day after each dose
Procedure: On Days 1, 4 and 8, patients had their scalp inspected for nits and lice. Their hair was shampooed on Days 2, 5, 9, and 15. The rinse water was filtered through a towel that enabled the number of lice (for each stage of nymph and/or adult lice) to be recorded. An independent qualitative assessment was performed on those towels with live lice at Day 15. Clinical adverse experiences were collected at all visits.
The primary analysis was based on treatment outcome (success or failure) on Day 15. "Treatment success" is defined to mean that no live lice were observed on Day 15, or, if lice were present on Day 15, that they were the result of reinfestation. "Reinfestation" corresponds to the condition where the patient, previously free of lice (including any stage nymphs and/or adult lice) on Day 9, is infested thereafter with adult lice. Patients who were reinfested were counted as successes. The percent of treatment success was calculated.
(§1) Three groups of patients were treated.

[8] = ivermectin; cited from earlier work
Onchocerca volvulus [9] = conditions: single oral dose, cited from earlier work
head lice [10] = conditions: single topical application; cited from earlier work
head lice [11] = test: Example 2: comparison of head lice treatment using orally administered ivermectin at cumulative doses of 200, 400 and 600 ug/kg; type: in vivo, human
Procedure: On Days 1, 4, 8 and 15, patients had their scalp inspected for viable nits and their hair shampooed (prior to dosing, if the day for scalp inspection was also a "dosing" day). The rinse water was filtered through a towel that enabled the number of lice (for each stage of nymphs and/or adult lice) to be recorded. An independent qualitative assessment was performed on a subset of towels. All patients were also seen on Days 5 and 9 for the assessment of clinical adverse experiences.
The primary analysis was based on treatment outcome (success or failure) on Day 15. "treatment success" is defined to mean that no live lice were observed on Day 15. "Reinfestation" corresponds to the condition where the patient, previously free of lice (including any stage nymphs and/or adult lice) on Day 8, is infested thereafter with adult lice. "Reinfestation" also corresponds to the condition where the patient, previously free of lice and nits, is infested thereafter with adult lice and first and second stage nymphs. The percent of treatment success was calculated.
as §1

[12] = Example 7: ivermectin plasma levels in fasted and fed state; type: in vivo, human; conditions: 30 mg oral; high fat meal vs fasting, three weeks apart
[13] = cited from earlier work

mixture containing at least 90% 5-O-demethyl-22,23-dihydroavermectin A1a and less than 10% 5-O-demethyl-25-de(1-methylpropyl)-22,23-dihyro-25-(1-methylethyl) avermectin A1a [ivermectin]
activity against life-cycle stages of nematodes (nematodes): active against various life-cycle stages of many but not all nematodes
affinity for mammalian ligand-gated chloride channels [1]: low affinity
activity against Strongyloides stercoralis [2]: limited to the intestinal stages
effect on head lice infestation (head lice [3]): significant, but not absolute, effect
activity against adult worm of any species of Filarioidea [4]: has not been shown to have any activity against adult worm
effectiveness against head lice (Pediculosis capitis): effectiveness of ivermectin 200 mcg/kg single dose against head lice
binding affinity to glutamate-gated chloride ion channels [5]: selectively binds with high affinity
effect of binding on cell membrane and parasite [5]: increase in the permeability of the cell membrane to chloride ions with hyperpolarization of the nerve or muscle cell, resulting in paralysis and death of the parasite
activity against the adult form (Onchocerca volvulus [6]; adult form): not against the adult form
activity against tissue microfilariae (Onchocerca volvulus [6]; tissue microfilariae): active against the tissue microfilariae
Treatment success (%) Day 15 (head lice [7]; Group 1: oral 400 ug/kg on Days 1 and 8, 57 patients): 98.2%
Treatment success (%) Day 15 (head lice [7]; Group 2: oral 400 ug/kg on Days 1, 4 and 8, 60 patients): 100%
Treatment success (%) Day 15 (head lice [7]; Group 3: oral 200 ug/kg on Days 1, 4 and 8, 57 patients): 100%
success rates, comparison of groups (head lice [7]; all three study groups, Day 15): comparable success rates
plasma half-life [8]: about 12 hours
dermal microfilarial density (Onchocerca volvulus [9]; after one month): near zero
maintenance of low microfilarial level (Onchocerca volvulus [9]): up to 12 months
curative effect on head lice (head lice [10]): absolute curative effect
success rate, comparison of groups (head lice [11]; 200 ug/kg doses on Days 1, 4 and 8): highest success rate
Treatment success (%) Day 15 (head lice [11]; Group 1: oral 200 ug/kg on Day 1, 29 patients): 52%
Treatment success (%) Day 15 (head lice [11]; Group 2: oral 200 ug/kg on Days 1 and 8, 28 patients): 68%
Treatment success (%) Day 15 (head lice [11]; Group 3: oral 200 ug/kg on Days 1, 4 and 8, 31 patients): 81%
increase in bioavailability, fed vs fasted state [12]: 2.5 times
overall incidences of adverse experiences ([13]; amicrofilaremic population, mass treatment programs): 1%
laboratory abnormalities ([13]; studies of microfilaremic patients): eosinophilia, liver function abnormalities and hematuria

Source: patent US6262031A, “Method for treating pediculosis capitisinfestation” (Merck & Co., Inc., priority 2000, dated 2001)
